Source: US12011444B2, “N-substituted indole derivatives as PGE2 receptor modulators” (Idorsia Pharmaceuticals Ltd, priority 2015, dated 2024)

What was measured:
PTGER2 (EP2) = PTGER2 (EP2) (Homo sapiens (Human), UniProt P43116); experiment: hEP2 b-arrestin assay (PathHunter HEK 293 PTGER2 b-arrestin cells); assay type: cell-based
In short: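 Readout is β-galactosidase complementation luminescence, expressed as percent of DMSO control (duplicates). PathHunter HEK293 EP2/β-arrestin 2 cells, grown 24 h, received compound for 15 min at 37 °C before a 120 min challenge with PGE2 at 5 μM final, followed by 1 h detection at room temperature.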

PTRGER4 (EP4) = PTRGER4 (EP4) (Homo sapiens (Human), UniProt P35408); experiment: hEP4 b-arrestin assay (PathHunter HEK 293 PTGER4 b-arrestin cells); assay type: cell-based
Sequence of PTRGER4 (EP4) (P35408 whole entry, looked up, the tested form may be a part): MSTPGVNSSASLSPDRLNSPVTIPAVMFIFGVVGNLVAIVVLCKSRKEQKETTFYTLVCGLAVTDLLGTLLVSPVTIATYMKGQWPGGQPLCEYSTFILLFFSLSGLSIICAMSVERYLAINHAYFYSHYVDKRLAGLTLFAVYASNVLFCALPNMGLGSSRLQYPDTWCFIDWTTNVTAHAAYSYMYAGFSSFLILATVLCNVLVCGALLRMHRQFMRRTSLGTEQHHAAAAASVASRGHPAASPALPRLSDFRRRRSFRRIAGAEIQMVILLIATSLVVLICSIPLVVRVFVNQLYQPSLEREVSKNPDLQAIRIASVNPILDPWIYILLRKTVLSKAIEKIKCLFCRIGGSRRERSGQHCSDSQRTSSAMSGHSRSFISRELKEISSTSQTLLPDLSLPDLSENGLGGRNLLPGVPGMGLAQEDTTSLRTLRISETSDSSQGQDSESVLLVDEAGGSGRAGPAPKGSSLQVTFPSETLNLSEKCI
In short: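 Antagonist mode: compound is given 15 min at 37 °C, then 20 nM (final) PGE2 for 120 min, in HEK293 cells stably expressing EP4 fused to ProLink and β-arrestin 2 fused to EA. Recruitment read as β-gal luminescence after 1 h reagent at room temperature, as percent of DMSO control.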

[1] = antagonistic activity on hEP2, mean where measured multiple times
[2] = antagonistic activity on hEP4, mean where measured multiple times
[3] = hEP2 b-arrestin assay (values without asterisk)
[4] = hEP4 b-arrestin assay (values without asterisk)

Sequence of PTGER2 (EP2) (P43116 whole entry): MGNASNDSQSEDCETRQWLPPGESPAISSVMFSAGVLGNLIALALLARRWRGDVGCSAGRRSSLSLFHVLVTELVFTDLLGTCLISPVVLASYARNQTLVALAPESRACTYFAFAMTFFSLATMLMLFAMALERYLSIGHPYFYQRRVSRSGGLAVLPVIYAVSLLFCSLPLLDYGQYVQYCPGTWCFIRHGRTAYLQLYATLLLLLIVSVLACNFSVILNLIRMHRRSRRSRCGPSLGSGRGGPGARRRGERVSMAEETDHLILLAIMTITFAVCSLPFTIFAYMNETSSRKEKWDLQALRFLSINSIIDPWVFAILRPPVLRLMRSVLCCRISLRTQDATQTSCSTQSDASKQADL

Row | Compound | IC50 (PTGER2 (EP2); [1]) [µM] | IC50 (PTRGER4 (EP4); [2]) [µM] | IC50 (PTGER2 (EP2); [3]) [µM] | IC50 (PTRGER4 (EP4); [4]) [µM]
1 | Cc1cc(F)cc2c1cc(C)n2CCNc1cc(-c2ccc3[nH]c(C(F)(F)F)nc3c2)ncn1 [compound 297] | 0.539 | 0.814 |  | 
2 | CCNc1cc(-c2cc(NCCn3c(C)cc4cccc(OC)c43)ncn2)ccc1C(=O)O [compound 247] | 0.032 | 0.681 |  | 
3 | COc1ccc(F)c2c1cc(C)n2CCNc1cc(-c2ccc(O)c(OC(F)(F)F)c2)ncn1 [Example 874, 4-{6-[2-(7-Fluoro-4-methoxy-2-methyl-indol-1-yl)-ethylamino]-pyrimidin-4-yl}-2-trifluoromethoxy-phenol] |  |  | 0.004 | 0.019
4 | Cc1c(F)c(F)cc2c1cc(C#N)n2CCNc1cc(-c2cc(C(F)(F)F)c(C(=O)O)s2)ncn1 [Example 857, 5-{6-[2-(2-Cyano-5,6-difluoro-4-methyl-indol-1-yl)-ethylamino]-pyrimidin-4-yl}-3-trifluoromethyl-thiophene-2-carboxylic acid] |  |  | 0.058 | 0.212
5 | Cc1ccc(F)c2c1cc(C)n2CCNc1cc(-c2ccc(CO)c(F)c2)ncn1 [compound 21, (2-Fluoro-4-{6-[2-(7-fluoro-2,4-dimethyl-indol-1-yl)-ethylamino]-pyrimidin-4-yl}-phenyl)-methanol] | 0.042 | 0.287 |  | 
6 | N#Cc1cc2cccc(F)c2n1CCNc1cc(-c2cc(C(F)(F)F)c(C(=O)O)s2)ncn1 [Example 859, 5-{6-[2-(2-Cyano-7-fluoro-indol-1-yl)-ethylamino]-pyrimidin-4-yl}-3-trifluoromethyl-thiophene-2-carboxylic acid] |  |  | 0.006 | 0.06
7 | COC(=O)N(C)c1ccc(-c2cc(NCCn3c(C#N)cc4c(OC)ccc(F)c43)ncn2)cc1 [Example 1056, (4-{6-[2-(2-Cyano-7-fluoro-4-methoxy-indol-1-yl)-ethylamino]-pyrimidin-4-yl}-phenyl)-methyl-carbamic acid methyl ester] |  |  | 0.12 | 0.119
8 | CCOc1cc(-c2cc(NCCn3c(C)cc4c(OC)cccc43)ncn2)ccc1-c1noc(=O)[nH]1 [Example 881, 3-(2-Ethoxy-4-{6-[2-(4-methoxy-2-methyl-indol-1-yl)-ethylamino]-pyrimidin-4-yl}-phenyl)-[1,2,4]oxadiazol-5(4H)-one] |  |  | 0.005 | 0.041
9 | COc1ccc(F)c2c1cc(C#N)n2CCNc1cc(-c2ccc3cc[nH]c3c2)ncn1 [Example 966, 7-Fluoro-1-{2-[6-(1H-indol-6-yl)-pyrimidin-4-ylamino]-ethyl)-4-methoxy-1H-indole-2-carbonitrile] |  |  | 0.014 | 0.031
10 | 4-{6-[2-(2-Cyano-7-fluoro-4-methoxy-indol-1-yl)-ethylamino]-pyrimidin-4-yl}-phthalic acid 2-ethyl ester [Example 965] |  |  | 0.053 | 0.043
11 | CC(C)Cc1cc(-c2cc(NCCn3c(C#N)cc4ccccc43)ncn2)ccc1C(=O)O [compound 165, 4-{6-[2-(2-Cyano-indol-1-yl)-ethylamino]-pyrimidin-4-yl}-2-isobutyl-benzoic acid] | 0.019 | 0.23 |  | 
12 | CSc1cc(-c2cc(NCCn3c(C)cc4c(Cl)ccc(Cl)c43)ncn2)cc(Cl)c1C(=O)O [compound 142, 2-Chloro-4-{6-[2-(4,7-dichloro-2-methyl-indol-1-yl)-ethylamino]-pyrimidin-4-yl}-6-methylsulfanyl-benzoic acid] | 0.016 | 0.588 |  | 
13 | COc1ccc(F)c2c1cc(C)n2CCNc1cc(-c2cc(C)c(C(=O)O)s2)ncn1 [compound 107] | 0.005 | 0.046 |  | 
14 | Cc1ccc(F)c2c1cc(C)n2CCNc1cc(-c2ccc(C3(C(=O)O)CC3)c(F)c2)ncn1 [compound 378] | 0.34 | 0.449 |  | 
15 | COc1ccc(F)c2c1cc(C)n2CCNc1cc(-c2ccc(C(=O)O)c(C)c2)ncn1 [compound 233] | 0.052 | 0.317 |  | 
16 | CCOc1cc(-c2cc(NCCn3c(C)cc4c(C)ccc(F)c43)ncn2)ccc1CO [compound 124, (2-Ethoxy-4-{6-[2-(7-fluoro-2,4-dimethyl-indol-1-yl)-ethylamino]-pyrimidin-4-yl}-phenyl)-methanol] | 0.007 | 0.151 |  | 
17 | CCOc1cc(-c2cc(NCCn3c(C#N)cc4c(C)c(F)cc(F)c43)ncn2)sc1C(=O)O [Example 940, 5-{6-[2-(2-Cyano-5,7-difluoro-4-methyl-indol-1-yl)-ethylamino]-pyrimidin-4-yl}-3-ethoxy-thiophene-2-carboxylic acid] |  |  | 0.01 | 0.003

Row | Compound | IC50 (PTGER2 (EP2); [1]) [µM] | IC50 (PTRGER4 (EP4); [2]) [µM] | IC50 (PTGER2 (EP2); [3]) [µM] | IC50 (PTRGER4 (EP4); [4]) [µM]
18 | CCCc1cc(-c2cc(NCCn3c(C)cc4cccc(F)c43)ncn2)ccc1C(=O)O [compound 125, 4-{6-[2-(7-Fluoro-2-methyl-indol-1-yl)-ethylamino]-pyrimidin-4-yl}-2-propyl-benzoic acid] | 0.008 | 0.932 |  | 
19 | COc1cccc2c1cc(C)n2CCNc1cc(-c2cc(Cl)c(C(=O)O)s2)ncn1 [compound 23, 3-Chloro-5-{6-[2-(4-methoxy-2-methyl-indol-1-yl)-ethylamino]-pyrimidin-4-yl}-thiophene-2-carboxylic acid] | 0.003 | 0.143 |  | 
20 | CCOc1cc(-c2cc(NCCn3c(C#N)cc4c(OC)ccc(F)c43)ncn2)sc1C(=O)OCC(=O)O [Example 1043, 5-{6-[2-(2-Cyano-7-fluoro-4-methoxy-indol-1-yl)-ethylamino]-pyrimidin-4-yl}-3-ethoxy-thiophene-2-carboxylic acid carboxymethyl ester] |  |  | 0.005 | 0.001
21 | COc1cc(-c2cc(NCCn3c(C#N)cc4c(OC)ccc(F)c43)ncn2)sc1C1(O)COC1 [Example 826, 7-Fluoro-1-(2-{6-[5-(3-hydroxy-oxetan-3-yl)-4-methoxy-thiophen-2-yl]-pyrimidin-4-ylamino}-ethyl)-4-methoxy-1H-indole-2-carbonitrile] |  |  | 0.013 | 0.008
22 | CCOc1cc(-c2cc(NCCn3c(C)cc4cc(F)c(F)c(F)c43)ncn2)sc1C(=O)O [compound 273] | 0.001 | 0.067 |  | 
23 | Cc1cc2c(Cl)cccc2n1CCNc1cc(-c2ccc(C(=O)O)c(C3CC3)c2)ncn1 [compound 169] | 0.008 | 0.543 |  | 
24 | COc1cc(-c2cc(NCCn3c(C)cc4c(OC)ccc(F)c43)ncn2)ccc1CO [compound 130, (4-{6-[2-(7-Fluoro-4-methoxy-2-methyl-indol-1-yl)-ethylamino]-pyrimidin-4-yl}-2-methoxy-phenyl)-methanol] | 0.004 | 0.078 |  | 
25 | COc1ccc(F)c2c1cc(C#N)n2CCNc1cc(-c2ccc3nccn3c2)ncn1 [Example 995, 7-Fluoro-1-[2-(6-imidazo[1,2-a]pyridin-6-yl-pyrimidin-4-ylamino)-ethyl]-4-methoxy-1H-indole-2-carbonitrile] |  |  | 0.013 | 0.052
26 | Cc1cc2cccc(F)c2n1CCNc1cc(-c2ccc(C(=O)O)c(CC(C)C)c2)ncn1 [compound 148, 4-{6-[2-(7-Fluoro-2-methyl-indol-1-yl)-ethylamino]-pyrimidin-4-yl}-2-isobutyl-benzoic acid] | 0.007 | 0.943 |  | 
27 | COc1cccc2c1cc(C)n2CCNc1cc(-c2cc(C)c(C(=O)O)c(Cl)c2)ncn1 [compound 131, 2-Chloro-4-{6-[2-(4-methoxy-2-methyl-indol-1-yl)-ethylamino]-pyrimidin-4-yl}-6-methyl-benzoic acid] | 0.023 | 0.402 |  | 
28 | N#Cc1c(F)c2ccccc2n1CCNc1cc(-c2cc(F)c(C(=O)O)s2)ncn1 [Example 846, 5-{6-[2-(2-Cyano-3-fluoro-indol-1-yl)-ethylamino]-pyrimidin-4-yl}-3-fluoro-thiophene-2-carboxylic acid] |  |  | 0.024 | 0.221
29 | COc1ccc(F)c2c1cc(C#N)n2CCNc1cc(-c2ccc3c(c2)N(C)C(=O)NC3)ncn1 [Example 919, 7-Fluoro-4-methoxy-1-{2-[6-(1-methyl-2-oxo-1,2,3,4-tetrahydro-quinazolin-7-yl)-pyrimidin-4-ylamino]-ethyl}-1H-indole-2-carbonitrile] |  |  | 0.01 | 0.003
30 | Cc1ccc(F)c2c1cc(C)n2CCNc1cc(-c2ccc(-c3ncno3)cc2)ncn1 [compound 79, [2-(7-Fluoro-2,4-dimethyl-indol-1-yl)-ethyl]-[6-(4-[1,2,4]oxadiazol-5-yl-phenyl)-pyrimidin-4-yl]-amine] | 0.011 | 0.197 |  | 
31 | CCOc1cc(-c2cc(NCCn3c(C)cc4c(C)c(F)cc(F)c43)ncn2)sc1C(=O)O [compound 162, 5-{6-[2-(5,7-Difluoro-2,4-dimethyl-indol-1-yl)-ethylamino]-pyrimidin-4-yl}-3-ethoxy-thiophene-2-carboxylic acid] | 0.003 | 0.004 |  | 
32 | CCOc1cc(-c2cc(NCCn3c(C#N)cc4c(OC)ccc(F)c43)ncn2)ccc1S(N)(=O)=O [Example 929, 4-{6-[2-(2-Cyano-7-fluoro-4-methoxy-indol-1-yl)-ethylamino]-pyrimidin-4-yl}-2-ethoxy-benzenesulfonamide] |  |  | 0.02 | 0.033
33 | CCOc1cc(-c2cc(NCCn3c(C#N)cc4c(OC)ccc(F)c43)ncn2)sc1CCC(=O)O [Example 932, 3-(5-{6-[2-(2-Cyano-7-fluoro-4-methoxy-indol-1-yl)-ethylamino]-pyrimidin-4-yl}-3-ethoxy-thiophen-2-yl)-propionic acid] |  |  | 0.014 | 0.003
34 | CCCc1cc(-c2cc(NCCn3c(C)cc4c(OC)ccc(F)c43)ncn2)ccc1C(=O)O [compound 348, 4-{6-[2-(7-Fluoro-4-methoxy-2-methyl-indol-1-yl)-ethylamino]-pyrimidin-4-yl}-2-propyl-benzoic acid] | 0.005 | 0.076 |  | 
